Results published in US6914045B2, “Glycopeptide antibiotics” (Wyeth Holdings Corporation, priority 2001, dated 2005).
In brackets after ≈: the same amount, converted by molar mass.

Experiments:
Experiment in all cases: in vitro antibacterial evaluation, MIC by broth dilution
Format in all cases: cell-based
[1] = system: Streptococcus sp.; settings: broth dilution, 18 hours at 35° C.; for MIC Streptococcus pneumoniae (ATCC 6301): strain ATCC 6301; for MIC Streptococcus pneumoniae (GC 1894): strain GC 1894; for MIC Streptococcus pyogenes (GC 4563): strain GC 4563; for MIC Streptococcus agalactiae (GC 4564): strain GC 4564; for MIC Streptococcus pneumoniae (GC 4565): strain GC 4565
How it was run: (§1)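 MIC = lowest antibiotic concentration preventing visible growth; inoculum 5×10^5 CFU/mL; drug range 64-0.06 μg/mL; Muller-Hinton II […]; NCCLS M7-A2 guidance.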

[2] = system: Staphylococcus sp.; settings: broth dilution, 18 hours at 35° C.; for MIC Staphylococcus aureus (GC 1131): strain GC 1131
How it was run: as §1

[3] = system: Enterococcus sp.; settings: broth dilution, 18 hours at 35° C.; for MIC Enterococcus faecalis (ATCC 29212): strain ATCC 29212; for MIC Enterococcus faecalis (GC 2242): strain GC 2242; for MIC Enterococcus faecium (GC 2243): strain GC 2243; for MIC Enterococcus faecalis (GC 2691): strain GC 2691; for MIC Enterococcus faecalis (GC 3059): strain GC 3059; for MIC Enterococcus faecalis (GC 4552): strain GC 4552; for MIC Enterococcus faecalis (GC 4553): strain GC 4553; for MIC Enterococcus faecalis (GC 4554): strain GC 4554; for MIC Enterococcus faecium (GC 4556): strain GC 4556; for MIC Enterococcus faecium (GC 4557): strain GC 4557; for MIC Enterococcus avium (GC 4558): strain GC 4558; for MIC Enterococcus faecalis (GC 6189): strain GC 6189
How it was run: as §1

[4] = system: Escherichia coli
How it was run: as §1

MIC Streptococcus pneumoniae (ATCC 6301) ([1]; inoculum 5×10^5 CFU/mL): <0.06 µg/mL | MIC Streptococcus pneumoniae (GC 1894) ([1]; inoculum 5×10^5 CFU/mL): <0.06 µg/mL | MIC Streptococcus pyogenes (GC 4563) ([1]; inoculum 5×10^5 CFU/mL): <0.06 µg/mL | MIC Streptococcus agalactiae (GC 4564) ([1]; inoculum 5×10^5 CFU/mL): <0.06 µg/mL | MIC Streptococcus pneumoniae (GC 4565) ([1]; inoculum 5×10^5 CFU/mL): <0.06 µg/mL | MIC Streptococcus pneumoniae (ATCC 6301) [1]: <0.06 µg/mL | MIC Streptococcus pneumoniae (GC 1894) [1]: <0.06 µg/mL | MIC Streptococcus pyogenes (GC 4563) [1]: <0.06 µg/mL | MIC Streptococcus agalactiae (GC 4564) [1]: <0.06 µg/mL | MIC Streptococcus pneumoniae (GC 4565) [1]: <0.06 µg/mL | MIC Staphylococcus aureus (GC 1131) ([2]; inoculum 5×10^5 CFU/mL): 4 µg/mL (≈ 2.71 µM) | MIC Staphylococcus aureus (ATCC 29213) ([2]; strain ATCC 29213): 4 µg/mL (≈ 2.71 µM) | MIC Staphylococcus aureus (GC 1131) [2]: 4 µg/mL (≈ 2.71 µM) | MIC Staphylococcus aureus (GC 3051) ([2]; strain GC 3051): 4 µg/mL (≈ 2.71 µM) | MIC Staphylococcus aureus (GC 3053) ([2]; strain GC 3053): 1 µg/mL (≈ 0.678 µM) | MIC Staphylococcus aureus (GC 4541) ([2]; strain GC 4541): 2 µg/mL (≈ 1.36 µM) | MIC Staphylococcus aureus (GC 4542) ([2]; strain GC 4542): 4 µg/mL (≈ 2.71 µM) | MIC Staphylococcus aureus-SMITH (GC 4543) ([2]; strain GC 4543): 4 µg/mL (≈ 2.71 µM) | MIC Staphylococcus aureus (GC 4544) ([2]; strain GC 4544): 2 µg/mL (≈ 1.36 µM) | MIC Staphylococcus aureus (GC 4545) ([2]; strain GC 4545): 4 µg/mL (≈ 2.71 µM) | MIC Coagulase Negative Staphylococcus (GC 4547) ([2]; strain GC 4547): 4 µg/mL (≈ 2.71 µM) | MIC Coagulase Negative Staphylococcus (GC 4548) ([2]; strain GC 4548): 1 µg/mL (≈ 0.678 µM) | MIC Coagulase Negative Staphylococcus (GC 4549) ([2]; strain GC 4549): 2 µg/mL (≈ 1.36 µM) | MIC Coagulase Negative Staphylococcus (GC 4551) ([2]; strain GC 4551): 1 µg/mL (≈ 0.678 µM) | MIC Coagulase Negative Staphylococcus (GC 6257) ([2]; strain GC 6257): 1 µg/mL (≈ 0.678 µM) | MIC Enterococcus faecalis (ATCC 29212) ([3]; inoculum 5×10^5 CFU/mL): 4 µg/mL (≈ 2.71 µM) | MIC Enterococcus faecalis (GC 2242) ([3]; inoculum 5×10^5 CFU/mL): 4 µg/mL (≈ 2.71 µM) | MIC Enterococcus faecium (GC 2243) ([3]; inoculum 5×10^5 CFU/mL): 4 µg/mL (≈ 2.71 µM) | MIC Enterococcus faecalis (GC 2691) ([3]; inoculum 5×10^5 CFU/mL): 4 µg/mL (≈ 2.71 µM) | MIC Enterococcus faecalis (GC 3059) ([3]; inoculum 5×10^5 CFU/mL): 4 µg/mL (≈ 2.71 µM) | MIC Enterococcus faecalis (GC 4552) ([3]; inoculum 5×10^5 CFU/mL): 4 µg/mL (≈ 2.71 µM) | MIC Enterococcus faecalis (GC 4553) ([3]; inoculum 5×10^5 CFU/mL): 4 µg/mL (≈ 2.71 µM) | MIC Enterococcus faecalis (GC 4554) ([3]; inoculum 5×10^5 CFU/mL): 2 µg/mL (≈ 1.36 µM) | MIC Enterococcus faecium (GC 4556) ([3]; inoculum 5×10^5 CFU/mL): 4 µg/mL (≈ 2.71 µM) | MIC Enterococcus faecium (GC 4557) ([3]; inoculum 5×10^5 CFU/mL): 4 µg/mL (≈ 2.71 µM) | MIC Enterococcus avium (GC 4558) ([3]; inoculum 5×10^5 CFU/mL): 4 µg/mL (≈ 2.71 µM) | MIC Enterococcus faecalis (GC 6189) ([3]; inoculum 5×10^5 CFU/mL): 4 µg/mL (≈ 2.71 µM) | MIC Enterococcus faecalis (ATCC 29212) [3]: 4 µg/mL (≈ 2.71 µM) | MIC Enterococcus faecalis (GC 2242) [3]: 4 µg/mL (≈ 2.71 µM) | MIC Enterococcus faecium (GC 2243) [3]: 4 µg/mL (≈ 2.71 µM) | MIC Enterococcus faecalis (GC 2691) [3]: 4 µg/mL (≈ 2.71 µM) | MIC Enterococcus faecalis (GC 3059) [3]: 4 µg/mL (≈ 2.71 µM) | MIC Enterococcus faecalis (GC 4552) [3]: 4 µg/mL (≈ 2.71 µM) | MIC Enterococcus faecalis (GC 4553) [3]: 4 µg/mL (≈ 2.71 µM) | MIC Enterococcus faecalis (GC 4554) [3]: 2 µg/mL (≈ 1.36 µM) | MIC Enterococcus faecium (GC 4556) [3]: 4 µg/mL (≈ 2.71 µM) | MIC Enterococcus faecium (GC 4557) [3]: 4 µg/mL (≈ 2.71 µM) | MIC Enterococcus avium (GC 4558) [3]: 4 µg/mL (≈ 2.71 µM) | MIC Enterococcus faecalis (GC 6189) [3]: 4 µg/mL (≈ 2.71 µM) | MIC Escherichia coli (ATCC 25922) ([4]; strain ATCC 25922, 18 hours at 35° C.): >64 µg/mL | MIC Escherichia coli (GC 4559) ([4]; strain GC 4559, 18 hours at 35° C.): >64 µg/mL | MIC Escherichia coli (GC 4560) ([4]; strain GC 4560, 18 hours at 35° C.): 4 µg/mL (≈ 2.71 µM)
Compound: CC(c1ccccc1)C1NC(=O)CNC(=O)C(CO)NC(=O)C(C(O)C2CNC(=N)N2C2OC(CO)C(O)C(O)C2O)NC(=O)C(C(O)C2CNC(=N)N2)NC(=O)C(Cc2ccc(OC3OC(CO)C(OC4OC5COC(c6cccc(Oc7ccccc7)c6)OC5C(O)C4O)C(O)C3O)cc2)NC1=O (centres unmarked) [Example 170]
MIC Staphylococcus haemolyticus (GC 4546) ([2]; strain GC 4546): 8 µg/mL (≈ 5.42 µM)
